Results from PMC10377574, “Preclinical Characterization of a Stabilized Gastrin-Releasing Peptide Receptor Antagonist for Targeted Cancer Theranostics” (Biomolecules, 2023).

How the values were obtained:
[1] = mouse, in vivo
Protocol: (§1) Pills were ground to a fine powder in a mortar, divided, and suspended in tab water to individual 12 mg/200 mL doses of pill per animal administered per os (Entresto® group) [35].
(§2) The in vivo stability was determined in healthy male Swiss albino mice (12 mice in total, body weights 30 ± 5 g). Briefly, each radiolabeled peptide was injected as a bolus (100 μL, 11–22 MBq, 3 nmol of total peptide in saline/EtOH 9/1 v/v) in the tail vein of mice either untreated (controls) or 20 min after having received per os a slurry of an Entresto® pill (individual 12 mg/200 mL doses of pill per animal; Entresto®-group; Novartis, Basel, Switzerland), as previously described [34, 35]. Blood was collected 5 min post-injection (pi) in a chilled syringe directly from the heart (0.5–1 mL) and samples were processed prior to being analyzed by HPLC for the detection of forming radiometabolites, as previously described [25, 35]. For analyses, an XBridge Shield RP18 (5 μm, 4.6 mm × 20 mm) column (Waters, Vienna, Austria) was eluted at a flow rate of 1 mL/min with 0.1% TFA in H2O (A) and MeCN (B) with the following linear gradient system: 100%A/0%B at 0 min, with B linearly increasing by 1%/min to 60%A/40%B (system 2).

in vivo = conditions: Balb/c nu/nu, mouse, iv, 40 pmol, total radioactivity
Protocol: (§3) Biodistribution was conducted in Balb/c nu/nu mice (Scanbur A/S, Stockholm, Sweden), implanted subcutaneously in their flanks with PC-3 cells (6 × 10^6 cells/mouse) 3–4 weeks before the study. […] Biodistributions were conducted at 1 h pi for both control groups.

[2] = Radiometal complex stability (PBS, EDTA challenge, human serum), ITLC; conditions: 1 h at 37 °C, n = 3
Protocol: The radiochemical stability to transchelation was assessed by incubation of the radiolabeled peptide either with 1000× molar excess of EDTA or by incubation in human serum for 1 h at 37 °C. Incubation of radiolabeled peptide in PBS was used as control. The leakage of radiometal from the radiometal-chelate was determined with ITLC.

[3] = Biodistribution in mice bearing PC-3 tumors; conditions: Balb/c nu/nu, mouse, iv, total radioactivity, n = 4; for tissue uptake at 1 h: 1 h pi; for tissue uptake at 4 h: 4 h pi; for tissue uptake at 24 h: 24 h pi
Protocol: as §3

[4] = tested on: PC-3 tumors (GRPR-positive); test: Biodistribution in mice bearing PC-3 tumors; conditions: 1 h pi, n = 4
Protocol: as §3

[5] = Biodistribution in negative control mice bearing DU-145 tumors; format: in vivo; conditions: Balb/c nu/nu, mouse, iv, 40 pmol, total radioactivity, 1 h pi, n = 4
Protocol: as §3

[6] = In vivo metabolic stability in peripheral mice blood, HPLC; conditions: 5 min pi
Protocol: as §1, §2

[7] = PC-3 tumor, 40 pmol, Tumor (PC-3) uptake
[8] = kidneys, 40 pmol, Kidneys uptake
[9] = pancreas, 40 pmol, Pancreas uptake
[10] = small intestine, 40 pmol, Small intestine uptake

## CC(C)C[C@H](NC(=O)C[C@H](O)[C@H](CC(C)C)NC(=O)[C@H](Cc1c[nH]cn1)NC(=O)CNC(=O)[C@@H](NC(=O)[C@H](C)NC(=O)[C@H](Cc1c[nH]c2ccccc12)NC(=O)[C@H](CCC(N)=O)NC(=O)[C@@H](Cc1ccccc1)NC(=O)COCCOCCNC(=O)CCC(C(=O)O)N1CCN(CC(=O)O)CCN(CC(=O)O)CCN(CC(=O)O)CC1)C(C)C)C(N)=O (mixture of isomers) [[^111In]In-DOTAGA-PEG2-RM26, metal not drawn]
[1]
  % degraded in peripheral mice blood: about 30%
In vivo; Blood uptake
  tissue uptake at 1 h: 0.5 ± 0.3 %ID/g
  tissue uptake at 4 h: 0.07 ± 0.01 %ID/g
  tissue uptake at 24 h: 0.015 ± 0.003 %ID/g
In vivo; Bone uptake
  tissue uptake at 1 h: 0.13 ± 0.08 %ID/g
  tissue uptake at 4 h: 0.07 ± 0.04 %ID/g
  tissue uptake at 24 h: 0.04 ± 0.03 %ID/g
In vivo; Kidneys uptake
  tissue uptake at 1 h: 4.6 ± 0.9 %ID/g
  tissue uptake at 4 h: 3.5 ± 0.7 %ID/g
  tissue uptake at 24 h: 2 ± 0.5 %ID/g
In vivo; Liver uptake
  tissue uptake at 1 h: 0.5 ± 0.1 %ID/g
  tissue uptake at 4 h: 0.23 ± 0.05 %ID/g
  tissue uptake at 24 h: 0.16 ± 0.02 %ID/g
In vivo; Lungs uptake
  tissue uptake at 1 h: 0.5 ± 0.2 %ID/g
  tissue uptake at 4 h: 0.11 ± 0.02 %ID/g
  tissue uptake at 24 h: 0.04 ± 0.01 %ID/g
In vivo; Muscle uptake
  tissue uptake at 1 h: 0.11 ± 0.08 %ID/g
  tissue uptake at 4 h: 0.04 ± 0.01 %ID/g
  tissue uptake at 24 h: 0.01 ± 0.01 %ID/g
In vivo; Pancreas uptake
  tissue uptake at 1 h: 1.9 ± 1 %ID/g
  tissue uptake at 4 h: 0.18 ± 0.04 %ID/g
  tissue uptake at 24 h: 0.03 ± 0.01 %ID/g
In vivo; Small intestine uptake
  tissue uptake at 1 h: 0.8 ± 0.2 %ID/g
  tissue uptake at 4 h: 0.13 ± 0.04 %ID/g
  tissue uptake at 24 h: 0.05 ± 0.05 %ID/g
In vivo; Spleen uptake
  tissue uptake at 1 h: 0.21 ± 0.06 %ID/g
  tissue uptake at 4 h: 0.1 ± 0.02 %ID/g
  tissue uptake at 24 h: 0.1 ± 0.03 %ID/g
In vivo; Tumor (PC-3) uptake
  tissue uptake at 1 h: 6 ± 0.4 %ID/g
  tissue uptake at 4 h: 3 ± 1 %ID/g
  tissue uptake at 24 h: 1.2 ± 0.4 %ID/g

## CC(C)C[C@H](NC(=O)C[C@H](O)[C@H](CC(C)C)NC(=O)[C@H](Cc1c[nH]cn1)NC(=O)CN(C)C(=O)[C@@H](NC(=O)[C@H](C)NC(=O)[C@H](Cc1c[nH]c2ccccc12)NC(=O)[C@H](CCC(N)=O)NC(=O)[C@@H](Cc1ccccc1)NC(=O)COCCOCCNC(=O)CCC(C(=O)O)N1CCN(CC(=O)O)CCN(CC(=O)O)CCN(CC(=O)O)CC1)C(C)C)C(N)=O (mixture of isomers) [[^111In]In-AU-RM26-M1, [^111In]In-DOTAGA-PEG2-(Sar^11)RM26, metal not drawn]
[2]; 1000× molar excess of EDTA
  Radiochemical stability, % protein-associated activity, EDTA: 98.7 ± 0.3%
[2]; PBS control
  Radiochemical stability, % protein-associated activity, PBS: 100.0 ± 0.3%
[2]; human serum
  Radiochemical stability, % protein-associated activity, Serum: 99.2 ± 0.3%
[3]; [7]
  tissue uptake at 1 h: 7 ± 0.7 %ID/g
  tissue uptake at 4 h: 5.7 ± 1.8 %ID/g
  tissue uptake at 24 h: 1.8 ± 0.6 %ID/g
[3]; PC-3 tumor, with unlabeled NOTA-PEG2-RM26, 5 nmol (in vivo GRPR blocking), PC-3 tumor uptake, GRPR-blocking group, excess unlabeled NOTA-PEG2-RM26 (5 nmol)
  tissue uptake at 1 h: 0.9 ± 0.6 %ID/g
[3]; blood, 40 pmol, Blood uptake
  tissue uptake at 1 h: 0.6 ± 0.1 %ID/g
  tissue uptake at 4 h: 0.11 ± 0.07 %ID/g
  tissue uptake at 24 h: 0.02 ± 0.01 %ID/g
[3]; bone, 40 pmol, Bone uptake
  tissue uptake at 1 h: 0.17 ± 0.09 %ID/g
  tissue uptake at 4 h: 0.09 ± 0.03 %ID/g
  tissue uptake at 24 h: 0.06 ± 0.03 %ID/g
[3]; [8]
  tissue uptake at 1 h: 7.2 ± 0.9 %ID/g
  tissue uptake at 4 h: 6 ± 1 %ID/g
  tissue uptake at 24 h: 3 ± 0.9 %ID/g
[3]; liver, 40 pmol, Liver uptake
  tissue uptake at 1 h: 0.55 ± 0.04 %ID/g
  tissue uptake at 4 h: 0.24 ± 0.02 %ID/g
  tissue uptake at 24 h: 0.1 ± 0.03 %ID/g
[3]; lungs, 40 pmol, Lungs uptake
  tissue uptake at 1 h: 0.46 ± 0.09 %ID/g
  tissue uptake at 4 h: 0.17 ± 0.06 %ID/g
  tissue uptake at 24 h: 0.03 ± 0.03 %ID/g
[3]; muscle, 40 pmol, Muscle uptake
  tissue uptake at 1 h: 0.15 ± 0.08 %ID/g
  tissue uptake at 4 h: 0.13 ± 0.05 %ID/g
  tissue uptake at 24 h: 0.01 ± 0.01 %ID/g
[3]; [9]
  tissue uptake at 1 h: 2.2 ± 0.6 %ID/g
  tissue uptake at 4 h: 0.29 ± 0.02 %ID/g
  tissue uptake at 24 h: 0.03 ± 0.01 %ID/g
[3]; pancreas, with unlabeled NOTA-PEG2-RM26, 5 nmol (in vivo GRPR blocking), pancreas uptake, blocked group, excess unlabeled NOTA-PEG2-RM26 (5 nmol)
  tissue uptake at 1 h: 0.3 ± 0.2 %ID/g
[3]; [10]
  tissue uptake at 1 h: 1.1 ± 0.6 %ID/g
  tissue uptake at 4 h: 0.3 ± 0.2 %ID/g
  tissue uptake at 24 h: 0.03 ± 0.01 %ID/g
[3]; spleen, 40 pmol, Spleen uptake
  tissue uptake at 1 h: 0.3 ± 0.2 %ID/g
  tissue uptake at 4 h: 0.22 ± 0.07 %ID/g
  tissue uptake at 24 h: 0.1 ± 0.03 %ID/g
[4]
  Pancreas uptake: 2.23 ± 0.56 %IA/g
[5]; DU-145 tumor, read-out: uptake in DU-145 tumors (GRPR-negative)
  tissue uptake at 1 h: 0.9 ± 0.2 %ID/g
[5]; pancreas, DU-145 tumor-bearing mice, read-out: pancreas uptake, negative control group
  tissue uptake at 1 h: 2.2 ± 0.7 %ID/g
[6]; Entresto-treated group (NEP inhibition, per os)
  % intact radioligand in peripheral mice blood: 91 ± 2%
[6]; control (untreated) mice
  % intact radioligand in peripheral mice blood: 88 ± 8%
